ChEMBL document CHEMBL4813920, “Metronidazole-conjugates: A comprehensive review of recent developments towards synthesis and medicinal perspective” (Eur J Med Chem, 2021)
In brackets after ≈: the same amount, converted by molar mass. Values belong to the compound of their own block, whether it stands above or below them.

How the values were obtained:
MDA-MB-231 = assay: Antiproliferative activity against human MDA-MB-231 cells after 24 hrs by MTT assay; type: functional, cell-based; conditions: MDA-MB-231, 24 h
Pancreatic alpha-amylase = target: T1, Pancreatic alpha-amylase (Sus scrofa, UniProt P00690); assay: Inhibition of porcine pancreatic alpha-amylase using 1% starch as substrate preincubated for 10 mins followed by substrate addition and measured after 10 mins by absorbance method
T1 sequence (P00690 whole entry): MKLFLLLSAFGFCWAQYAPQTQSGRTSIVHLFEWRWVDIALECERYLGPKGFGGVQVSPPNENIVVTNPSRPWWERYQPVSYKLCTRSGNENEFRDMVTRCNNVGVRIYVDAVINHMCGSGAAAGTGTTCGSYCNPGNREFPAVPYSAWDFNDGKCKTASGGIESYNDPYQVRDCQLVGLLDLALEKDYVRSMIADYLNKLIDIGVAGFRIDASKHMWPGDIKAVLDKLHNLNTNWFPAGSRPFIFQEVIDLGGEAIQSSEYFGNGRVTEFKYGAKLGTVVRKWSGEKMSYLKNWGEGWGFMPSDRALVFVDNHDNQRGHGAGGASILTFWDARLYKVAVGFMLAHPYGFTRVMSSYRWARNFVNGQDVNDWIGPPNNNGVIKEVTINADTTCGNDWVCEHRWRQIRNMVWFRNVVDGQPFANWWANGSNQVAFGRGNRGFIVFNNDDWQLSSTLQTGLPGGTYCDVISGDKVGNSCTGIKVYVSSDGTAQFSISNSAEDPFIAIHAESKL

Escherichia coli [1] = assay: Antibacterial activity against Escherichia coli ATCC 35218 by MH media dilution method; type: functional
Staphylococcus aureus [2] = assay: Antibacterial activity against Staphylococcus aureus ATCC 6538 by MH media dilution method; type: functional
Bacillus spizizenii [3] = assay: Antibacterial activity against Bacillus subtilis ATCC 6633 by MH media dilution method; type: functional
Pseudomonas aeruginosa [4] = assay: Antibacterial activity against Pseudomonas aeruginosa ATCC 13525 by MH media dilution method; type: functional
Candida albicans = assay: Antifungal activity against Candida albicans ATCC 10231 incubated for 24 hrs by broth microdilution method; type: functional
Entamoeba histolytica [5] = assay: Antiamoebic activity against Entamoeba histolytica HK9 ATCC 30015 by trypan blue staining based assay; type: functional, organism-based
Giardia intestinalis [6] = assay: Antigiardial activity against Giardia intestinalis WB ATCC 30957 by trypan blue staining based assay; type: functional, organism-based; conditions: Giardia duodenalis
Clostridium sporogenes = assay: Antimicrobial activity against Clostridium sporogenes ATCC 19404 incubated for 24 hrs by broth microdilution method; type: functional
[7] = Selectivity index, ratio of CC50 for African green monkey Vero cells to IC50 for antigiardial activity against Trichomonas vaginalis GT3; type: toxicity; conditions: read-out: Ratio CC50/IC50
Giardia intestinalis [8] = assay: Antigiardial activity against Giardia intestinalis MSS:0696:1 incubated for 48 hrs; type: functional, organism-based; conditions: Giardia duodenalis, MSS:0696:1, 48 h
Trichomonas vaginalis = assay: Anti-trichomonas activity against Trichomonas vaginalis GT3 incubated for 48 hrs; type: functional, organism-based; conditions: GT3, 48 h
[9] = Selectivity index, ratio of CC50 for African green monkey Vero cells to IC50 for antigiardial activity against Giardia intestinalis MSS:0696:1; type: toxicity; conditions: read-out: Ratio CC50/IC50
Entamoeba histolytica [10] = assay: Antiamoebic activity against Entamoeba histolytica HK9 ATCC 30015 incubated for 72 hrs by trypan blue staining based assay; type: functional, organism-based; conditions: ATCC 30015, 72 h
Carbonic anhydrase 9 = Carbonic anhydrase 9 (Homo sapiens, UniProt Q16790); assay: Inhibition of recombinant human carbonic anhydrase 9 preincubated with enzyme for 15 mins by phenol red dye based stopped flow CO2 hydration assay
Carbonic anhydrase 2 = Carbonic anhydrase 2 (Homo sapiens, UniProt P00918); assay: Inhibition of recombinant human carbonic anhydrase 2 preincubated with enzyme for 15 mins by phenol red dye based stopped flow CO2 hydration assay
Staphylococcus aureus [11] = assay: Antibacterial activity against Staphylococcus aureus ATCC 6538P incubated for 24 hrs by broth microdilution method; type: functional
Escherichia coli [12] = assay: Antibacterial activity against Escherichia coli ATCC 8739 incubated for 24 hrs by broth microdilution method; type: functional
HeLa = assay: Antiproliferative activity against human Hela cells incubated for 24 to 48 hrs by CCK8 assay; type: functional, cell-based
U-251 = assay: Antiproliferative activity against human U-251 cells incubated for 24 to 48 hrs by CCK8 assay; type: functional, cell-based
HepG2 = assay: Antiproliferative activity against human HepG2 cells incubated for 24 to 48 hrs by CCK8 assay; type: functional, cell-based
A549 = assay: Antiproliferative activity against human A549 cells incubated for 24 to 48 hrs by CCK8 assay; type: functional, cell-based
Escherichia coli [13] = assay: Antibacterial activity against Escherichia coli ATCC 35218 incubated for 24 hrs by two fold serial dilution method; type: functional
Pseudomonas aeruginosa [14] = assay: Antibacterial activity against Pseudomonas aeruginosa ATCC 13525 incubated for 24 hrs by two fold serial dilution method; type: functional
Bacillus spizizenii [15] = assay: Antibacterial activity against Bacillus subtilis ATCC 6633 incubated for 24 hrs by two fold serial dilution method; type: functional
Staphylococcus aureus [16] = assay: Antibacterial activity against Staphylococcus aureus ATCC 6538 incubated for 24 hrs by two fold serial dilution method; type: functional
[17] = Acute oral toxicity in mouse assessed as induction of mortality measured once daily for 14 days; conditions: in vivo, time 14 day
[18] = Acute oral toxicity in mouse assessed as behavioral changes measured once daily for 14 days; conditions: in vivo, time 14 day
[19] = Inhibition of Escherichia coli N-terminal His-tagged FabH expressed in Escherichia coli BL21(DE3) by liquid scintillation counting method
[20] = Acute oral toxicity in mouse assessed as signs of gross toxicity measured once daily for 14 days; conditions: in vivo, time 14 day

SMILES: CC1=CC(=O)c2c(O)cccc2C1=O [PLUMBAGIN]
IC50 (MDA-MB-231): 4400 nM

SMILES: O=C(N[C@H](CO)[C@H](O)c1ccc([N+](=O)[O-])cc1)C(Cl)Cl [CHLORAMPHENICOL]
MIC (Escherichia coli [1]): 3.91 µg/mL (≈ 12.1 µM) | MIC (Staphylococcus aureus [2]): 3.91 µg/mL (≈ 12.1 µM) | MIC (Bacillus spizizenii [3]): 3.91 µg/mL (≈ 12.1 µM) | MIC (Pseudomonas aeruginosa [4]): 0.98 µg/mL (≈ 3.03 µM)

SMILES: Cc1ncc([N+](=O)[O-])n1CC/N=C/c1ccc(F)cc1
MIC (Candida albicans): 170 µM (≈ 47 µg/mL)

SMILES: Cc1ccc(/C=N/CCn2c([N+](=O)[O-])cnc2C)cc1
MIC (Candida albicans): 170 µM (≈ 46.3 µg/mL)

SMILES: Cc1ncc([N+](=O)[O-])n1CC/N=C/c1ccc([N+](=O)[O-])cc1
MIC (Candida albicans): 170 µM (≈ 51.6 µg/mL)

SMILES: COc1ccc(-n2c(SCCn3c([N+](=O)[O-])cnc3C)nnc2-c2cccnc2)cc1
IC50 (Entamoeba histolytica [5]): 480 nM | IC50 (Giardia intestinalis [6]): 1780 nM | MIC (Clostridium sporogenes): 17.8 µM (≈ 7.79 µg/mL)

SMILES: COc1cc(COCCn2c([N+](=O)[O-])cnc2C)cc(OC)c1
IC50 (Pancreatic alpha-amylase): < 2980 nM

SMILES: Cc1ncc([N+](=O)[O-])n1CC(C)O (stereo not drawn) [SECNIDAZOLE]
selectivity ratio [7]: > 7 | IC50 (Giardia intestinalis [8]): 4410 nM | IC50 (Trichomonas vaginalis): 13400 nM | selectivity ratio [9]: > 24

SMILES: Cc1ncc([N+](=O)[O-])n1CCN1CCN(c2ccnc3cc(Cl)ccc23)CC1
IC50 (Entamoeba histolytica [10]): 960 nM

SMILES: Cc1ncc([N+](=O)[O-])n1CC/N=C/c1cccs1
MIC (Candida albicans): 170 µM (≈ 44.9 µg/mL)

SMILES: Cc1ncc([N+](=O)[O-])n1CCOc1cccc(/C=N\c2ccc(S(=O)(=O)Nc3nccs3)cc2)c1
IC50 (Carbonic anhydrase 9): 38 nM | IC50 (Carbonic anhydrase 2): 89 nM

SMILES: COc1ccc(COCCn2c([N+](=O)[O-])cnc2C)cc1
IC50 (Pancreatic alpha-amylase): < 2980 nM

SMILES: Cc1ncc([N+](=O)[O-])n1CC/N=C/c1cc(Cl)ccc1O
MIC (Staphylococcus aureus [11]): 760 µM (≈ 235 µg/mL) | MIC (Escherichia coli [12]): 760 µM (≈ 235 µg/mL) | MIC (Candida albicans): 170 µM (≈ 52.5 µg/mL)

SMILES: C[C@@H]1CCN(C(=O)CC#N)C[C@@H]1N(C)c1ncnc2[nH]ccc12 [TOFACITINIB]
IC50 (HeLa): 40 nM | IC50 (U-251): 330 nM | IC50 (HepG2): 110 nM | IC50 (A549): 100 nM

SMILES: NC[C@H]1O[C@H](O[C@H]2[C@H](O)[C@@H](O[C@H]3O[C@H](CO)[C@@H](O)[C@H](N)[C@H]3O)[C@H](N)C[C@@H]2N)[C@H](N)[C@@H](O)[C@@H]1O [BEKANAMYCIN]
MIC (Escherichia coli [13]): 1.56 µg/mL (≈ 3.23 µM) | MIC (Pseudomonas aeruginosa [14]): 3.13 µg/mL (≈ 6.47 µM) | MIC (Bacillus spizizenii [15]): 0.78 µg/mL (≈ 1.61 µM) | MIC (Staphylococcus aureus [16]): 1.56 µg/mL (≈ 3.23 µM)

SMILES: Cc1ncc([N+](=O)[O-])n1CCSc1nnc(-c2ccncc2)n1-c1cccc2ccccc12
MIC (Clostridium sporogenes): 17.1 µM (≈ 7.82 µg/mL)

SMILES: Cc1ncc([N+](=O)[O-])n1CC/N=C/c1ccccc1Cl
MIC (Candida albicans): 170 µM (≈ 49.8 µg/mL)

SMILES: Cc1ncc([N+](=O)[O-])n1CC(C)OC(=O)c1ccc(/C=N/c2ccc(S(=O)(=O)NC(=N)N)cc2)cc1 (stereo not drawn)
MIC (Escherichia coli [13]): 3.13 µg/mL (≈ 6.09 µM) | LD50 at 336 h [17]: > 5000 mg/kg | LD50 at 336 h [18]: > 5000 mg/kg | IC50 [19]: 4930 nM | MIC (Pseudomonas aeruginosa [14]): 25 µg/mL (≈ 48.7 µM) | LD50 at 336 h [20]: > 5000 mg/kg | MIC (Bacillus spizizenii [15]): 3.13 µg/mL (≈ 6.09 µM) | MIC (Staphylococcus aureus [16]): 12.5 µg/mL (≈ 24.3 µM)

SMILES: Cc1ncc([N+](=O)[O-])n1CCn1c(-c2ccncc2)nn(-c2ccccc2)c1=S
IC50 (Entamoeba histolytica [5]): 3270 nM | IC50 (Giardia intestinalis [6]): 760 nM | MIC (Clostridium sporogenes): 29.9 µM (≈ 12.2 µg/mL)

Other lines, results leading:

IC50 (Pancreatic alpha-amylase): < 2980 nM
SMILES: Cc1ncc([N+](=O)[O-])n1CCOCc1ccccc1Br

IC50 (Pancreatic alpha-amylase): < 2980 nM
SMILES: Cc1ncc([N+](=O)[O-])n1CCOCc1ccc(Br)cc1

IC50 (Pancreatic alpha-amylase): 1660 nM
SMILES: Cc1ncc([N+](=O)[O-])n1CCOCc1ccc2ccccc2c1

IC50 (Pancreatic alpha-amylase): < 2980 nM
SMILES: COc1cccc(COCCn2c([N+](=O)[O-])cnc2C)c1

IC50 (Pancreatic alpha-amylase): < 2980 nM
SMILES: Cc1ncc([N+](=O)[O-])n1CCOCc1ccc(F)cc1Br

IC50 (Pancreatic alpha-amylase): < 2980 nM
SMILES: Cc1ncc([N+](=O)[O-])n1CCOCc1ccc(F)cc1

IC50 (Pancreatic alpha-amylase): < 2980 nM
SMILES: Cc1ncc([N+](=O)[O-])n1CCOCc1ccccc1

IC50 (Pancreatic alpha-amylase): < 2980 nM
SMILES: Cc1ccccc1COCCn1c([N+](=O)[O-])cnc1C
